Molecules are shown by their SMILES. Structures can show the parent of a compound that is named as a salt.

This note sets out measurements from patent US5929112A, “Derivatives of N,N'-di (carboxyalkyl) alkylene di-or triamine” (L'Oreal, priority 1995, dated 1999).

The data set can be described thus: Comparative solubility tests in 50 mM acetate buffer pH 5.8. The format is physicochemical. As to conditions: aqueous buffer. An excerpt: COMPARATIVE SOLUBILITY TESTS

In general, solubility refers to the dissolved amount per volume that the medium holds. Read a high solubility as a readily soluble substance. Molecule `COc1cc(CN(CC(=O)O)CC(C)N(CC(=O)O)Cc2cc(OC)c(OC)c(OC)c2)cc(OC)c1OC` (centres unmarked) [Example 1, N,N'-bis-(3,4,5-trimethoxybenzyl)-2-methyl ethylenediamine diacetic acid] returned a solubility greater than 100 mg/mL.
In the case of `COc1cc(CN(CCN(CC(=O)O)Cc2cc(OC)c(OC)c(OC)c2)CC(=O)O)cc(OC)c1OC` [N,N'-bis-(3,4,5-trimethoxybenzyl) ethylenediamine-N,N'-diacetic acid, 2 HCl], the solubility is less than 5 mg/mL.
